Results: US6737383B1, “Herbicidal oxadiazolidines” (priority 1999, dated 2004)

Columns and labels:
[1] = tested on: velvetleaf; assay: Test A velvetleaf; type: in vivo, Abutilon theophrasti; details: 0 to 10 scale where 0 is no effect and 10 is complete control
Protocol: (§1) Seeds of barnyardgrass (Echinochloa crus-galli), crabgrass (Digitaria spp.), morningglory (Ipomoea spp.), and velvetleaf (Abutilon theophrasti) were planted into a sandy loam soil and treated preemergence by soil drench with test chemicals formulated in a non-phytotoxic solvent mixture which includes a surfactant At the same time, these crop and weed species were also treated postemergence sprayed to runoff, with test chemicals formulated in the same manner.
(§2) Plants ranged in height from two to eighteen cm and were in the one to two leaf stage for the postemergence treatment. Treated plants and untreated controls were maintained in a greenhouse for approximately eleven days, after which all treated plants were compared to untreated controls and visually evaluated for injury. Plant response ratings, summarized in Table A, are based on a 0 to 10 scale where 0 is no effect and 10 is complete control.

[2] = tested on: morningglory; assay: Test A morningglory; type: in vivo, Ipomoea spp.; details: 0 to 10 scale where 0 is no effect and 10 is complete control
Protocol: as §1, §2

[3] = tested on: crabgrass; assay: Test A crabgrass; type: in vivo, Digitaria spp.; details: 0 to 10 scale where 0 is no effect and 10 is complete control
Protocol: as §1, §2

[4] = tested on: barnyardgrass; assay: Test A barnyardgrass; type: in vivo, Echinochloa crus-galli; details: 0 to 10 scale where 0 is no effect and 10 is complete control
Outline: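 Ratings came from visual comparison with untreated plants about eleven days after treatment, scored 0 for no effect through 10 for complete control. Both soil-drench preemergence and runoff-spray postemergence applications were made at the same time.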

[5] = tested on: maize hybrid P33G26; assay: Test G maize injury with safener-treated seed; details: presence of dichlormid; with the exception of Compound 131 at the rate of 560 g/ha
Protocol: In soil-containing pots were planted seeds of maize hybrid P33G26 that was previously treated with dichlomid, fenchlorazole-ethyl, and naphthalic anhydride (or no safener). The soil surface was then treated with several rates of Compound 131 or Compound 146 dissolved in a non-phytotoxic solvent using a flat-fan sprayer calibrated to deliver 310 L/ha. Treatmemtes were replicated 4 or 5 times. The treated and untreated plants were allowed to grow in a greenhouse using supplementary artificial lighting with a day-length of 14 hours, with the temperature maintained at about 27° C. during the day and 24° C. during the night. Plants were kept watered with a dilute balanced fertilizer solution.
At 28 days after application, the treated plants were compared with untreated controls and vissually evaluated.

[6] = tested on: Pioneer hybrid P33G26 corn; assay: Test H corn injury, herbicide and safener mixtures applied to soil; type: in vivo; details: safeners for Compound 113
Protocol: Mixtures of the herbicide and safeners were applied to pots of a soil mixture previously sown with corn. Pioneer hybrid P33G26 corn was sown in pots containing a sterile mix of 60% sassafras soil and 40% Metro Mix 360® growing medium (pH 6.7, O.M. 2%). Test compounds were dissolved in AGWT (a mixture of 0.25% Tween 20 surfactant, 5% water, 5% glycerin and 89.75% acetone) and sprayed on the soil as pots passed under a stationary 8002E nozzle. Treatments were applied at a 33 gal/acre rate of the AGWT carrier. After treatment, the test pots were placed in the greenhouse and watered. There were two replications for each treatment. Each pot contained eight corn seeds. The pots within each replication were placed in random positions on greenhouse benches. Test plants were fertilized as they were watered with approximately 200 ppm of N (as water soluble 20-20-20 fertilizer) which was metered into the water lines with a fertilizer injector. Daytime temperatures was 23-30° C. and night time temperature was 18-25° C. The test plants were supplemented with artificial lighting. The lights were activated whenever the natural light intensity dropped below the programmed threshold. Day length was maintained for approximately 14 hours.
The test was evaluated approximately 12 days after treatment. […]

melting point | SMILES | Plant response rating, Velvetleaf ([1]; Postemergence, Rate 1000 g/ha) | Plant response rating, Velvetleaf ([1]; Pre-emergence, Rate 2000 g/ha) | Plant response rating, Morningglory ([2]; Postemergence, Rate 1000 g/ha) | Plant response rating, Morningglory ([2]; Pre-emergence, Rate 2000 g/ha) | Plant response rating, Crabgrass ([3]; Postemergence, Rate 1000 g/ha) | Plant response rating, Crabgrass ([3]; Pre-emergence, Rate 2000 g/ha) | Plant response rating, Barnyardgrass ([4]; Postemergence, Rate 1000 g/ha) | Plant response rating, Barnyardgrass ([4]; Pre-emergence, Rate 2000 g/ha) | Safening effect on maize injury [5] | Safening of Compound 113 on corn [6]
116 to 117 °C | CC(C)N(C(=O)n1oc(=O)[nH]c1=O)c1ccccc1 [Compound 386] | 0 | 0 | 0 | 0 | 0 | 0 | 0 | 0 |  | 
 | C=CCN(CC=C)C(=O)C(Cl)Cl [dichlormid, reference compound] |  |  |  |  |  |  |  |  | reduced the injury to an insignificant level | functioned very effectively as safeners
